# Data reported in US20260216170A1, “TETRAHYDROISOQUINOLINE HETEROBIFUNCTIONAL BCL-XL DEGRADERS” (Treeline Biosciences, Inc., priority 2023, published 2026).
# Biological target: T1, Human BCL-XL protein (N-terminal HiBiT tagged BCL-XL expressed in HT1080 cells) (Homo sapiens, UniProt Q07817)
# T1 construct: expressed in transfected cells; host or cells: HT-1080 (ATCC CCL-121), stably transduced with lentivirus pLV-UBC-N-HiBiT-BCL-XL-PGK-puro and selected with puromycin
# Assay: HiBiT Based Degradation Assay
# Format: cell-based
# Settings: 24 hours incubation; for DC50: BCL-XL degradation, HT1080 cells expressing N-HiBiT-BCL-XL, normalized with DMSO control, geometric mean for multiple data points, read-out: EC50 (24 h); for Ymin (24 h): bottom of BCL-XL degradation curve (remaining HiBiT-BCL-XL signal vs DMSO control), HT1080 cells
# Procedure, shortened: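 BCL-XL degradation was read as Nano-Glo HiBiT lytic luminescence relative to DMSO after a 24 h compound treatment of HT1080 cells carrying stably integrated N-HiBiT-BCL-XL. EC50 values come from four-parameter logistic curves, with the hook-curve minimum fixed as bottom, and are geometric means where tested repeatedly.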
# T1 sequence (Q07817 whole entry): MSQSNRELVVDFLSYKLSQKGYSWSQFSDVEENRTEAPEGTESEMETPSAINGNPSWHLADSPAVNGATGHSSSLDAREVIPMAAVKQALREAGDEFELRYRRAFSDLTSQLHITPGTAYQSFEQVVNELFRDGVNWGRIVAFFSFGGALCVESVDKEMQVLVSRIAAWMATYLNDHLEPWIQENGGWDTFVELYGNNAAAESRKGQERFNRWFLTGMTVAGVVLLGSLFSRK
SMILES,DC50 [nM],Ymin (24 h)
Cn1nc(C2CCC(=O)NC2=O)c2ccc(NC(=O)CN3CCC4(CC3)CC(COc3cccc(-c5ccc(N6CCc7cccc(C(=O)Nc8nc9ccccc9s8)c7C6)nc5C(=O)O)c3C(F)(F)F)C4)nc21 (centres unmarked) [Compound 147],10 to 100,B (30% ≤ Ymin < 50%)
"Cc1cc(O[C@@H](C)CCC2CCN(CC(=O)Nc3ccc4c(C5CCC(=O)NC5=O)nn(C)c4c3F)CC2)ccc1-c1ccc(N2CCc3cccc(C(=O)Nc4nc5ccccc5s4)c3C2)nc1C(=O)O (single isomer, unassigned) [Compound 224a]",10 to 100,B (30% ≤ Ymin < 50%)
COc1c(NC(=O)CN2CC[C@H](CCCOc3cccc(-c4ccc(N5CCc6cccc(C(=O)Nc7nc8ccccc8s7)c6C5)nc4C(=O)O)c3C)C[C@H]2C)ccc2c(C3CCC(=O)NC3=O)nn(C)c12 (some centres unmarked) [Compound 208c],10 to 100,B (30% ≤ Ymin < 50%)
"Cc1c(OC2CC3(CCN(CC(=O)Nc4ccc5c(C6CCC(=O)NC6=O)nn(C)c5c4F)CC3)C2)cccc1-c1ccc(N2CCc3cccc(C(=O)Nc4nc5ccccc5s4)c3C2)nc1C(=O)O (centres unmarked) [Compound 190, 6-(8-(benzo[d]thiazol-2-ylcarbamoyl)-3,4-dihydroisoquinolin-2(1H)-yl)-3-(3-((7-(2-((3-(2,6-dioxopiperidin-3-yl)-7-fluoro-1-methyl-1H-indazol-6-yl)amino)-2-oxoethyl)-7-azaspiro[3.5]nonan-2-yl)oxy)-2-methylphenyl)picolinic acid]",< 10,B (30% ≤ Ymin < 50%)
"COc1c(NC(=O)CN2CCC(CCCOc3cccc(-c4ccc(N5CCc6cccc(C(=O)Nc7nc8ccccc8s7)c6C5)nc4C(=O)O)c3C)CC2)ccc2c(C3CCC(=O)NC3=O)nn(C)c12 (centres unmarked) [Compound 104, 6-[8-(1,3-benzothiazol-2-ylcarbamoyl)-3,4-dihydro-1H-isoquinolin-2-yl]-3-[3-[3-[1-[2-[[3-(2,6-dioxo-3-piperidyl)-7-methoxy-1-methyl-indazol-6-yl]amino]-2-oxo-ethyl]-4-piperidyl]propoxy]-2-methyl-phenyl]pyridine-2-carboxylic acid]",10 to 100,B (30% ≤ Ymin < 50%)
"Cc1cc(OC[C@@H]2C[C@@H]2C2CCN(CC(=O)Nc3ccc4c(C5CCC(=O)NC5=O)nn(C)c4c3)CC2)ccc1-c1ccc(N2CCc3cccc(C(=O)Nc4nc5ccccc5s4)c3C2)nc1C(=O)O (single isomer, unassigned) [Compound 1003d]",< 10,A (Ymin < 30%)
COc1c(NC(=O)CN2CC[C@H](CCCOc3ccc(-c4ccc(N5CCc6cccc(C(=O)Nc7nc8ccccc8s7)c6C5)nc4C(=O)O)c(C)c3)C[C@H]2C)ccc2c(C3CCC(=O)NC3=O)nn(C)c12 (some centres unmarked) [Compound 210c],< 10,A (Ymin < 30%)
Cc1cc(NCCCC2CCN(CC(=O)Nc3ccc4c(C5CCC(=O)NC5=O)nn(C)c4c3)CC2)ccc1-c1ccc(N2CCc3cccc(C(=O)Nc4nc5ccccc5s4)c3C2)nc1C(=O)O (centres unmarked) [Compound 218],< 10,A (Ymin < 30%)
Cn1nc(C2CCC(=O)NC2=O)c2ccc(NC(=O)CN3CCC(CCCOc4cccc(-c5ccc(N6CCc7cccc(C(=O)Nc8nc9ccccc9s8)c7C6)nc5C(=O)O)c4F)CC3)cc21 (centres unmarked) [Compound 198],10 to 100,B (30% ≤ Ymin < 50%)
COc1c(NC(=O)CN2CC[C@@H](CCCOc3cccc(-c4ccc(N5CCc6ccnc(C(=O)Nc7nc8ccccc8s7)c6C5)nc4C(=O)O)c3C)C[C@@H]2C)ccc2c(C3CCC(=O)NC3=O)nn(C)c12 (some centres unmarked) [Compound 216b],< 10,B (30% ≤ Ymin < 50%)
"COc1c(NC(=O)CN2CCC3(CC2)CC(Oc2ccc(-c4ccc(N5CCc6cccc(C(=O)Nc7nc8ccccc8s7)c6C5)nc4C(=O)O)c(C)c2)C3)ccc2c(C3CCC(=O)NC3=O)nn(C)c12 (centres unmarked) [Compound 170, 6-(8-(benzo[d]thiazol-2-ylcarbamoyl)-3,4-dihydroisoquinolin-2(1H)-yl)-3-(4-((7-(2-((3-(2,6-dioxopiperidin-3-yl)-7-methoxy-1-methyl-1H-indazol-6-yl)amino)-2-oxoethyl)-7-azaspiro[3.5]nonan-2-yl)oxy)-2-methylphenyl)picolinic acid]",< 10,A (Ymin < 30%)
"Cc1c(OC[C@H]2C[C@H]2C2CCN(CC(=O)Nc3ccc4c(C5CCC(=O)NC5=O)nn(C)c4c3)CC2)cccc1-c1ccc(N2CCc3cccc(C(=O)Nc4nc5ccccc5s4)c3C2)nc1C(=O)O (single isomer, unassigned) [Compound 1001c]",10 to 100,B (30% ≤ Ymin < 50%)
C[C@@H]1CC(CCCOc2cccc(-c3ccc(N4CCc5cccc(C(=O)Nc6nc7ccccc7s6)c5C4)nc3C(=O)O)c2C(F)(F)F)CCN1CC(=O)Nc1ccc2c(C3CCC(=O)NC3=O)nn(C)c2c1 (some centres unmarked) [Compound 215d],10 to 100,B (30% ≤ Ymin < 50%)
"Cc1c(OCC2CC3(CCN(CCNc4ccc5c(C6CCC(=O)NC6=O)nn(C)c5c4)CC3)C2)cccc1-c1ccc(N2CCc3cccc(C(=O)Nc4nc5ccccc5s4)c3C2)nc1C(=O)O (centres unmarked) [Compound 153, 6-[8-(1,3-benzothiazol-2-ylcarbamoyl)-3,4-dihydro-1H-isoquinolin-2-yl]-3-[3-[[7-[2-[[3-(2,6-dioxo-3-piperidyl)-1-methyl-indazol-6-yl]amino]ethyl]-7-azaspiro[3.5]nonan-2-yl]methoxy]-2-methyl-phenyl]pyridine-2-carboxylic acid]",< 10,A (Ymin < 30%)
Cc1cc(OC2CC3(CCN(CC(=O)Nc4ccc5c(C6CCC(=O)NC6=O)nn(C)c5c4F)CC3)C2)ccc1-c1ccc(N2CCc3cccc(C(=O)Nc4nc5ccccc5s4)c3C2)nc1C(=O)O (centres unmarked) [Compound 191],< 10,B (30% ≤ Ymin < 50%)
"COc1c(NC(=O)CN2CCC3(CC2)CC(COc2cccc(-c4ccc(N5CCc6ccnc(C(=O)Nc7nc8ccccc8s7)c6C5)nc4C(=O)O)c2C(F)(F)F)C3)ccc2c(C3CCC(=O)NC3=O)nn(C)c12 (centres unmarked) [Compound 162, 6-[8-(1,3-benzothiazol-2-ylcarbamoyl)-3,4-dihydro-1H-2,7-naphthyridin-2-yl]-3-[3-[[7-[2-[[3-(2,6-dioxo-3-piperidyl)-7-methoxy-1-methyl-indazol-6-yl]amino]-2-oxo-ethyl]-7-azaspiro[3.5]nonan-2-yl]methoxy]-2-(trifluoromethyl)phenyl]pyridine-2-carboxylic acid]",10 to 100,B (30% ≤ Ymin < 50%)
"C[C@H](CCC1CCN(CC(=O)Nc2ccc3c(C4CCC(=O)NC4=O)nn(C)c3c2)CC1)Oc1ccc(-c2ccc(N3CCc4cccc(C(=O)Nc5nc6ccccc6s5)c4C3)nc2C(=O)O)c(C(F)(F)F)c1 (single isomer, unassigned) [Compound 138b]",10 to 100,B (30% ≤ Ymin < 50%)
"Cc1c(OC[C@@H]2C[C@@H]2C2CCN(CC(=O)Nc3ccc4c(C5CCC(=O)NC5=O)nn(C)c4c3)CC2)cccc1-c1ccc(N2CCc3cccc(C(=O)Nc4nc5ccccc5s4)c3C2)nc1C(=O)O (single isomer, unassigned) [Compound 1001d]",10 to 100,B (30% ≤ Ymin < 50%)
Cc1cc(OCC2CC3(CCN(CC(=O)Nc4ccc5c(C6CCC(=O)NC6=O)nn(C)c5c4C(F)(F)F)CC3)C2)ccc1-c1ccc(N2CCc3cccc(C(=O)Nc4nc5ccccc5s4)c3C2)nc1C(=O)O (centres unmarked) [Compound 136],10 to 100,B (30% ≤ Ymin < 50%)
C[C@@H]1C[C@@H](CCCOc2ccc(-c3ccc(N4CCc5cccc(C(=O)Nc6nc7ccccc7s6)c5C4)nc3C(=O)O)c(C(F)(F)F)c2)CCN1CC(=O)Nc1ccc2c(C3CCC(=O)NC3=O)nn(C)c2c1 (some centres unmarked) [Compound 209d],< 10,B (30% ≤ Ymin < 50%)
C[C@H]1C[C@@H](CCCOc2cccc(-c3ccc(N4CCc5cccc(C(=O)Nc6nc7ccccc7s6)c5C4)nc3C(=O)O)c2C(F)(F)F)CCN1CC(=O)Nc1ccc2c(C3CCC(=O)NC3=O)nn(C)c2c1 (some centres unmarked) [Compound 215b],10 to 100,B (30% ≤ Ymin < 50%)
Cc1c(OCCC[C@@H]2C[C@H]3CC[C@@H](C2)N3CC(=O)Nc2ccc3c(C4CCC(=O)NC4=O)nn(C)c3c2)cccc1-c1ccc(N2CCc3cccc(C(=O)Nc4nc5ccccc5s4)c3C2)nc1C(=O)O (some centres unmarked) [Compound 175a],< 10,B (30% ≤ Ymin < 50%)
"Cc1cc(OC[C@@H]2C[C@H]2CC2CCN(CC(=O)Nc3ccc4c(C5CCC(=O)NC5=O)nn(C)c4c3)CC2)ccc1-c1ccc(N2CCc3cccc(C(=O)Nc4nc5ccccc5s4)c3C2)nc1C(=O)O (single isomer, unassigned) [Compound 1002c]",< 10,A (Ymin < 30%)
"Cc1cc(OC2CC3(CCN(CC(=O)Nc4ccc5c(C6CCC(=O)NC6=O)nn(C)c5c4)CC3)C2)ccc1-c1ccc(N2CCc3ccnc(C(=O)Nc4nc5ccccc5s4)c3C2)nc1C(=O)O (centres unmarked) [Compound 167, 6-[8-(1,3-benzothiazol-2-ylcarbamoyl)-3,4-dihydro-1H-2,7-naphthyridin-2-yl]-3-[4-[[7-[2-[[3-(2,6-dioxo-3-piperidyl)-1-methyl-indazol-6-yl]amino]-2-oxo-ethyl]-7-azaspiro[3.5]nonan-2-yl]oxy]-2-methyl-phenyl]pyridine-2-carboxylic acid]",< 10,A (Ymin < 30%)
"C[C@H](COc1ccc(-c2ccc(N3CCc4cccc(C(=O)Nc5nc6ccccc6s5)c4C3)nc2C(=O)O)c(C(F)(F)F)c1)CC1CCN(CC(=O)Nc2ccc3c(C4CCC(=O)NC4=O)nn(C)c3c2)CC1 (single isomer, unassigned) [Compound 130b]",10 to 100,B (30% ≤ Ymin < 50%)
